# Assay results reported in publication PMC6934184, “Selective DNA-PKcs inhibition extends the therapeutic index of localized radiotherapy and chemotherapy” (The Journal of Clinical Investigation, 2019).
# Target: T1, SIK3 (Homo sapiens, UniProt Q9Y2K2)
# T1 construct: purchased Thermo Fisher Scientific (Life Technologies) SelectScreen
# Assay: SelectScreen LanthaScreen
# Format: binding
# Settings: 1 µM
# Summary of the method: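 NU5455 was profiled across the SelectScreen Broad panel of kinase activity and binding assays. Z'LYTE reactions such as CSF1R ran at apparent Km ATP, while the Adapta CAMK1 assay used ATP listed as 10. Values are given as percent.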
# T1 sequence (Q9Y2K2 whole entry): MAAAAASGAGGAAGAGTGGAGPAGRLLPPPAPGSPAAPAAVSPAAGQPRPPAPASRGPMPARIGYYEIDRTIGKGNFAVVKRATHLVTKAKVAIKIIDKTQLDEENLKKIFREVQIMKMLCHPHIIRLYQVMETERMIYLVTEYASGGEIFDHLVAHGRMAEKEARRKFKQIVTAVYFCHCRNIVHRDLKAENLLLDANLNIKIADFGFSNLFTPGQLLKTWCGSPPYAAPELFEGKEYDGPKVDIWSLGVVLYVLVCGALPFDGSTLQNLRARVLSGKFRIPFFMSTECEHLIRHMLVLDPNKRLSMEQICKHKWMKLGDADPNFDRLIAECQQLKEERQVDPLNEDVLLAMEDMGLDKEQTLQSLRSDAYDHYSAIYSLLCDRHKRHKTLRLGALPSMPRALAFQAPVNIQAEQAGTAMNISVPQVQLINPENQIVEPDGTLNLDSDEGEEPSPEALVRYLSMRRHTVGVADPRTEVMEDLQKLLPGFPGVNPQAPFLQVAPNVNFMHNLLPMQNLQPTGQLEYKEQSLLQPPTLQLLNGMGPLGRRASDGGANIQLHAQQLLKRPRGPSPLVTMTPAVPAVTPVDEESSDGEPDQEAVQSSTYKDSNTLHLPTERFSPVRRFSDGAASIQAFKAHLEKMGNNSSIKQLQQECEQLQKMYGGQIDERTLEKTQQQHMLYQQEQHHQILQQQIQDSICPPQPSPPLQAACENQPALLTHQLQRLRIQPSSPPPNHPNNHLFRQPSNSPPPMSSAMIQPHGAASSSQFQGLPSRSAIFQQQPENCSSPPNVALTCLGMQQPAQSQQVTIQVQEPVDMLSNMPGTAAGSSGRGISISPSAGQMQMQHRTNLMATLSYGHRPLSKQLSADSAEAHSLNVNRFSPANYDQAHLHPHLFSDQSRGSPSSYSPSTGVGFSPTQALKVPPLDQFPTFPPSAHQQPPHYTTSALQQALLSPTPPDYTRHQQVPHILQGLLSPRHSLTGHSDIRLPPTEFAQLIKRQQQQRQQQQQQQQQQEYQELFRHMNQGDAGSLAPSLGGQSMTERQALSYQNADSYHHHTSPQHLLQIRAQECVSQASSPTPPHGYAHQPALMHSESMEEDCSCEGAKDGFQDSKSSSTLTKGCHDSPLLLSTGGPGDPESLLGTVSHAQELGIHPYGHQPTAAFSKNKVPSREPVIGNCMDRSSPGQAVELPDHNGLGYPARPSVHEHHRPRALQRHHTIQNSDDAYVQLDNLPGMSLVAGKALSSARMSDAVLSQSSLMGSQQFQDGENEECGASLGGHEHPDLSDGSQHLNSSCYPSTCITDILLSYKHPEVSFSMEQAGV
compound,measurement,value
CN(C(=O)CN1CCOCC1)c1ccc2sc3c(-c4cccc5c(=O)cc(N6CC7CCC(C6)O7)oc45)cccc3c2c1 [NU5455],% displacement,16.1%
